One test has as its system HSV. Particulars: long-term suppressive treatment; cited from earlier work.
The subject of another test is HSV-1. The experiment in a line: HSV-1 Antiviral Assay (Vero cells, cell viability). Type of test: cell-based. Particulars: for pEC50: Human alphaherpesvirus 1, 96 h, Vero cells, read-out: HSV-1 EC50. An outline of the steps:
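Vero cells (2.5×10^3/well) received 8-point 3-fold compound dilutions in 2% FBS medium (0.5% DMSO), then 80 TCID50 HSV-1. After 4 days at 37 °C, cell viability was measured by CellTiter-Glo luminescence.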

The test system of another test is HSV-2 G strain. In words: HSV-2 Antiviral Assay (Vero cells, cell viability). Type of test: cell-based. Particulars: for pEC50: Human alphaherpesvirus 2, Vero, 120 h, Vero cells, 5 days. In a few lines:
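Vero cells (1.0×10^4/well, attached overnight) given 8-point 3-fold compound dilutions (0.5% DMSO) then infected with 160 TCID50 HSV-2 G strain in 2% FBS medium for 5 days at 37 °C. Protection read as cell viability by WST-8 absorbance at 460 and 620 nm after 3 h.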

The mark [1] stands for this setting: 80 TCID50 HSV-1, 4 days, cell viability.
Where [2] appears, read: 160 TCID50 HSV-2 G strain, cell viability.
[3] abbreviates: ratio of EC50 vs Example 87 in WO2001047904.

pEC50: −log10 of the molar value. Like-named read-outs stand apart in the source and are kept apart here.

Consider `CC(C)[C@H](N)C(=O)OCCOCn1cnc2c(=O)[nH]c(N)nc21` [valacyclovir], for which the reduce transmission risk in the test on HSV is recorded as 46%.
A word on the pEC50: it is the EC50 on a negative log10 scale, so that one unit is a factor of ten. On to `COc1ccccc1-c1ccc(N2CCCN(c3nc(C)c(S(N)(=O)=O)s3)C2=O)cc1` [Compound 10], for which the pEC50 in the test on HSV-1 (setting [1]) and in the test with HSV-2 G strain (setting [2]) was more than 7.00 each time.
For the compound `O=C1N(c2ccc(-c3cc(F)ccc3F)cc2)CCCN1c1ncc(S(=O)(=O)C2CC2)s1` [Compound 166], the pEC50 with HSV-1 (setting [1]) and in the test with HSV-2 G strain (setting [2]) was 6.00 to 7.00 throughout.
For `Cc1nc(N2CCCN(c3ccc(-c4cccc5c4sc(=O)n5C)cc3)C2=O)sc1S(N)(=O)=O` [Compound 79], the pEC50 in the test on HSV-1 (setting [1]) and in the test with HSV-2 G strain (setting [2]) was more than 7.00 throughout.
On to `Cc1nc(N2CCCN(c3ccc(-c4cc(F)cc5c4ccn5C)cc3)C2=O)sc1S(N)(=O)=O` [Compound 251], for which the pEC50 with HSV-1 (setting [1]) and in the test with HSV-2 G strain (setting [2]) was more than 7.00 in each case.
On to `Cc1nc(N2CCCN(c3ccc(-c4cccc5[nH]cnc45)cc3)C2=O)sc1S(N)(=O)=O` [Compound 74], for which the pEC50 with HSV-1 (setting [1]) and with HSV-2 G strain (setting [2]) was 6.00 to 7.00 in each case.
Regarding `Cc1nc(N2CCCN(c3ccc(-c4ccccc4F)cc3)C2=O)sc1S(N)(=O)=O` [Compound 8], the pEC50 in the test on HSV-1 (setting [1]) and in the test on HSV-2 G strain (setting [2]) was more than 7.00 each time.
For `Cc1nc(N2CCCN(c3ccc(-c4cc(F)cc5nnsc45)cc3)C2=O)sc1S(N)(=O)=O` [Compound 243], the negative logarithm of the EC50 (pEC50) with HSV-1 (setting [1]) and with HSV-2 G strain (setting [2]) was more than 7.00 throughout.
Turning to `Cc1nc(N2CCCN([C@H](C)c3cccc(-c4ccccc4F)c3)C2=O)sc1S(N)(=O)=O` (single isomer, unassigned) [Compound 178], the pEC50 with HSV-1 (setting [1]) and in the test on HSV-2 G strain (setting [2]) was 5.30 to 6.00 throughout.
Turning to `Cc1nc(N2CC(C)CN(c3ccc(-c4cc(F)ccc4F)cc3)C2=O)sc1S(N)(=O)=O` (stereo not drawn) [Compound 318], the pEC50 in the test with HSV-1 (setting [1]) and in the test on HSV-2 G strain (setting [2]) was more than 7.00 each time.
As for `Cc1nc(N2CCCN(c3ccc(-c4cc(F)ccn4)cc3)C2=O)sc1S(N)(=O)=O` [Compound 36], the pEC50 in the test with HSV-1 (setting [1]) and in the test on HSV-2 G strain (setting [2]) was more than 7.00 each time.
`Cc1nc(N2CC3(CC3)CN(c3ccc(-c4ccnn4C)cc3)C2=O)sc1S(N)(=O)=O` [Compound 113, 4-Methyl-2-(7-(4-(1-methyl-1H-pyrazol-5-yl)phenyl)-6-oxo-5,7-diazaspiro[2.5]octan-5-yl)thiazole-5-sulfonamide]: the negative-log EC50 (pEC50) in the test on HSV-1 (setting [1]) and with HSV-2 G strain (setting [2]) was 5.30 to 6.00 in each case.
In the case of `Cc1nc(N(C)C(=O)N(C)c2ccc(-c3cc(F)ccc3F)cc2)sc1S(N)(=O)=O` [Reference Compound A, reference compound], the negative logarithm of the EC50 (pEC50) in the test on HSV-1 (4 days) was 6.07; in the test on HSV-2 G strain, 6.03. Besides, the “fold less active than Example 5 in the HSV-1 assay” value in the test with HSV-1 (ratio of EC50 vs Example 5) was 44 fold. The “fold less active than acyclic amide analog Example 87 in the HSV-1 assay” value with HSV-1 (setting [3]) is 50 fold. The “fold less active than Example 5 in the HSV-2 assay” value in the test with HSV-2 G strain (ratio of EC50 vs Example 5) stood at 92 fold. Besides, in the test on HSV-2 G strain (setting [3]), the “fold less active than acyclic amide analog Example 87 in the HSV-2 assay” value stood at 54 fold.
As to `Cc1nc(N2CCCN(c3ccc(-c4cc(F)cc(Br)c4F)cc3)C2=O)sc1S(N)(=O)=O` [Compound 212], the pEC50 in the test on HSV-1 (setting [1]) and in the test on HSV-2 G strain (setting [2]) was more than 7.00 in each case.
`Cc1nc(N2CCCN(c3ccc(-c4cc(F)ccc4C4CC4)cc3)C2=O)sc1S(N)(=O)=O` [Compound 22]: the pEC50 in the test on HSV-1 (setting [1]) and in the test on HSV-2 G strain (setting [2]) was more than 7.00 in each case.
Take `Cc1nc(N2CCCCN(c3ccc(-c4ccccn4)cc3)C2=O)sc1S(N)(=O)=O` [Compound 103]: the pEC50 in the test with HSV-1 (setting [1]) and in the test with HSV-2 G strain (setting [2]) was more than 7.00 throughout.
Turning to `CNS(=O)(=O)c1sc(N2CCCN(c3ccc(-c4ccccc4F)cc3)C2=O)nc1C` [Compound 120], the pEC50 with HSV-1 (setting [1]) and in the test on HSV-2 G strain (setting [2]) was more than 7.00 in each case.
Turning to `Cc1cc2cccc(-c3ccc(N4CCCN(c5nc(C)c(S(N)(=O)=O)s5)C4=O)cc3)c2s1` [Compound 73], the pEC50 in the test with HSV-1 (setting [1]) and in the test on HSV-2 G strain (setting [2]) was more than 7.00 in each case.
As for `Cc1nc(N2CCCN(c3ccc(-c4cc(F)cc5nsnc45)cc3)C2=O)sc1S(N)(=O)=O` [Example 259], the pEC50 with HSV-1 (4 days) is 8.00; with HSV-2 G strain it was 8.15. The “fold more active than Example 314 (5-membered ring analog)” value in the test on HSV-2 G strain (ratio of EC50 vs Example 314, assay not stated, HSV-2 values only) is 4 fold.
Turning to `C#Cc1ccc(F)cc1-c1ccc(N2CCCN(c3nc(C)c(S(N)(=O)=O)s3)C2=O)cc1` [Compound 18], the pEC50 in the test on HSV-1 (setting [1]) and with HSV-2 G strain (setting [2]) was more than 7.00 throughout.
Consider `Cc1nc(N2CCCN(c3ccc(-c4nc5ccccc5s4)cc3)C2=O)sc1S(N)(=O)=O` [Compound 88], for which the figures for the pEC50 in the test with HSV-1 (setting [1]) and with HSV-2 G strain (setting [2]) were 6.00 to 7.00 and 5.30 to 6.00, respectively.
Taken in the same sequence, the figures for `CNS(=O)(=O)c1sc(N2CCCN(Cc3cccc(-c4ccccc4)c3)C2=O)nc1C` [Compound 182] were more than 7.00 and more than 7.00.

The values are drawn from patent US20260103471A1, “CYCLIC UREA THIAZOLYL COMPOUNDS FOR TREATMENT OF HSV” (Assembly Biosciences, Inc., priority 2022, published 2026).
